Experimental data as given in paper PMC2185538, “Purification of the full-length Xenopus interphotoreceptor retinoid binding protein and growth of diffraction-quality crystals” (Molecular Vision, 2007).

Target: T1, Xenopus interphotoreceptor retinoid-binding protein (xIRBP) (Xenopus laevis, UniProt Q7SZI7)
T1 construct: gene rbp3; recombinant full-length four-module xIRBP (1197 amino acids; 131 kDa), free of its thioredoxin fusion partner; vector-derived N-terminal G-L-G-D-P
Assay: fluorescence titration: retinol fluorescence enhancement (also tryptophan quenching, Kd […], and energy transfer, Kd […])

T1 sequence (Q7SZI7 23-1219): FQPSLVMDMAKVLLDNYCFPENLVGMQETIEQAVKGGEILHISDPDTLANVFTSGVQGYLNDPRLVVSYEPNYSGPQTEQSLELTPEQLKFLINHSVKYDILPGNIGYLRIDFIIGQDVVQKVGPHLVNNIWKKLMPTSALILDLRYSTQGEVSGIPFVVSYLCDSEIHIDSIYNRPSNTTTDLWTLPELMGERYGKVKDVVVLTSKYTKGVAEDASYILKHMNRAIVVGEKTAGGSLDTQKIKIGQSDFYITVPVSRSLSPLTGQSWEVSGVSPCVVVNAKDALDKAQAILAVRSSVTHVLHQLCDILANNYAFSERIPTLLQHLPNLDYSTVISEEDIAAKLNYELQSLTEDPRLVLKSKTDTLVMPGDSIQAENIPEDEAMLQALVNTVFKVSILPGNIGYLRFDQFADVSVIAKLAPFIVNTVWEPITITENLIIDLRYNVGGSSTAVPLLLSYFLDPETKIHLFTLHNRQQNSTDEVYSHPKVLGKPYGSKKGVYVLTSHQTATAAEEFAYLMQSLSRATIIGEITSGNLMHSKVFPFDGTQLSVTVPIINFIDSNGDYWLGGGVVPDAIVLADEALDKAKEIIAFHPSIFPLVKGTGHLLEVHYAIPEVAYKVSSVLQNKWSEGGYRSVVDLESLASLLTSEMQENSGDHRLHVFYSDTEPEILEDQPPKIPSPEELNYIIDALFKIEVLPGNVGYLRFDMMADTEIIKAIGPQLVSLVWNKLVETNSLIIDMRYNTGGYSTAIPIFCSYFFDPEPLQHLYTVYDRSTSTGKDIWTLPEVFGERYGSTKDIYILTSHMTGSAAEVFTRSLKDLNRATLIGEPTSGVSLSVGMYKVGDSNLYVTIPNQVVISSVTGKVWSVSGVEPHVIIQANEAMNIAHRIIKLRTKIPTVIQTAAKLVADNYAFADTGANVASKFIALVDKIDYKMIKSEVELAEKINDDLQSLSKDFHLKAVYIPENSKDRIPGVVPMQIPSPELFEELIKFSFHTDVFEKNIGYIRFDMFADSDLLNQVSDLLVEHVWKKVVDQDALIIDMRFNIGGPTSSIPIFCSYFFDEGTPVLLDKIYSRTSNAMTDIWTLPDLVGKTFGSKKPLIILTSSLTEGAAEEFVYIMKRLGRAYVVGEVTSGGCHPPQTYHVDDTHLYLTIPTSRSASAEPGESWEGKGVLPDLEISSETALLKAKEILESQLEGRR

Kd: 150 ± 30 nM
SMILES: CC1=C(/C=C/C(C)=C/C=C/C(C)=C/CO)C(C)(C)CCC1 [all-trans retinol]
